From US4783480A, “6-keto-prostaglandin E1 derivatives” (Ono Pharmaceutical Co., Ltd., priority 1986, dated 1988)

What was measured:
[1] = tested on: blood platelet aggregation induced by ADP; assay: inhibitory activity of blood platelet aggregation induced by ADP in rats; type: cell-based, rat; conditions: relative to PGE1 = 1
Source text: (iii) inhibitory activity of blood platelet aggregation induced by ADP in rats. The experimental methods are described hereinafter.
(iii) The concentrations required to inhibit blood platelet aggregation induced in rats by ADP (adenosine diphosphate) are shown relative to PGE1.

[2] = toxicity (LD50) by intravenous administration in mice; conditions: mouse, in vivo
blood pressure = assay: hypotensive activity in the anesthetized dog, intravenous administration; type: in vivo; conditions: relative to PGE1 = 1
Experimental: (ii) hypotensive activity in dogs and
(ii) Hypotensive activity was measured in the anesthetized dog by intravenous administration, and as active control, PGE1 was used.

[3] = tested on: carbon tetrachloride-induced acute liver damage (plasma GOT and GPT); assay: cytoprotective activity in carbon tetrachloride-induced acute liver damage in rats; type: in vivo, rat; conditions: for minimal effective dose: Rattus norvegicus, sc, rats, dosed three times (0, 6, 12 hrs), read-out: Inhibiting activity of CCl4 induced liver damage, minimum effective dose; for activity in the inhibition of liver damage induced by carbon tetrachloride compared with compounds (d) and (e): words
Experimental: (i) cytoprotective activity in carbon tetrachloride-induced acute liver damage in rats.
(i) Inhibitory activity on liver damage induced by carbon tetrachloride.
A solution of carbon tetrachloride (2000 μl) dissolved in olive oil (10 ml) was administered to Wistar male rates (body weight 190-220 g) at a rate of 2000 μl/kg animal body weight by intraperitoneal injection.
A solution of a compound of the present invention or of one of the comparison compounds in olive oil (2 ml/kg animal body weight) was administered three times, at the same time as, and then 6 hrs and 12 hrs after, the dosage of carbon tetrachloride, and blood was collected twice after 24 hrs and 48 hrs after the first dosage. The blood was centrifuged and plasma GOT (glutamic oxalacetic transaminase) activity and plasma GPT (glutamic pyruvic transaminase) activity were measured.

Structure (SMILES)	Inhibiting activity of blood platelet aggregation (PGE1 = 1) [1]	LD50 [2]	Hypotensive activity (PGE1 = 1) (blood pressure)	minimal effective dose [3]	activity in the inhibition of liver damage induced by carbon tetrachloride compared with compounds (d) and (e) [3]
CCCC[C@H]1CC[C@H]([C@H](O)/C=C/[C@H]2[C@H](O)CC(=O)[C@@H]2CC(=O)CCCCC(=O)N[C@@H](CC(C)C)C(=O)O)C1 [1(b), N-[(13E)-(11α,15α,16S,18S)-6,9-dioxo-11,15-dihydroxy-16,18-ethano-20-ethylprost-13-en-1-oyl]-L-leucine]	0.01	30 mg/kg	0.01	< 0.01 mg/kg	almost the same activity
CCCCC(C)C[C@H](O)/C=C/[C@H]1[C@H](O)CC(=O)[C@@H]1CC(=O)CCCCC(=O)O (some centres unmarked) [(d), reference compound]	68	–	21	0.03 mg/kg	–
CCCC[C@H]1CC[C@H]([C@H](O)/C=C/[C@H]2[C@H](O)CC(=O)[C@@H]2CC(=O)CCCCC(=O)O)C1 [(e), reference compound]	506	–	24.5	0.005 mg/kg	–
CCCC[C@H]1CC[C@H]([C@H](O)/C=C/[C@H]2[C@H](O)CC(=O)[C@@H]2CC(=O)CCCCC(=O)N[C@@H](Cc2ccccc2)C(=O)O)C1 [Example 1, N-[(13E)-(11α,15α,16S,18S)-6,9-dioxo-11,15-dihydroxy-16,18-ethano-20-ethylprost-13-en-1-oyl]-L-phenylalanine]	0.01	22 mg/kg	0.03	< 0.01 mg/kg	almost the same activity
CCCC[C@H](C)C[C@H](O)/C=C/[C@H]1[C@H](O)CC(=O)[C@@H]1CC(=O)CCCCC(=O)N[C@@H](Cc1ccccc1)C(=O)OC [Example 2(a), N[(13E)-(11α,15α,17S)6,9-dioxo-11,15-dihydroxy-17,20-dimethylprost-13-en-1-oyl]-L-phenylalanine methyl ester]	0.0053	–	0.014	0.03 mg/kg	almost the same activity
